Like-named read-outs stand apart in the source and are kept apart here.
Columns and labels:
[1] = test system: Botrytis cinerea (BMM strain); assay: Radial growth of the mycelium on solid PDA medium
Procedure: The BMM strain of the fungus B. cinerea was cultured for about 10 days on solid PDA medium (24 g/L of PDB and 15 g/L of agar) in the dark and at a temperature of 22° C. A cylinder of agar comprising the mycelium at its top was then cut out with a sterile punch with a diameter of 6 mm, and was then deposited at the center of round Petri dishes (9 cm diameter) containing PDA medium supplemented or not with 4-PBA. 4-PBA, prepared extemporaneously, was added directly to the molten culture medium to final concentrations of 1, 2 and 5 mM. Controls were prepared by adding a volume of sterile water equivalent to the highest concentration of 4-PBA. The dishes were kept in the dark at a temperature of 22° C. throughout the experiment. […] For this, the following linear regression was used: Degree of inhibition (%)=f(ln[4-PBA]).

Fusarium graminearum = assay: microbe, parasite or virus in culture; type: cell-based
[2] = test system: Colletrotrichum lindemuthianum; assay: Radial growth of the mycelium; type: cell-based
[3] = test system: Botrytis cinerea (BMM strain); assay: Germination of the spores and growth of the primary hypha in liquid medium; type: cell-based; settings: 16 to 18 hours
Phytophthora capsici = assay: Radial growth of the oomycete; type: cell-based
[4] = test system: Arabidopsis thaliana (ecotype Col-0); assay: Effect of watering with 4-PBA on vegetative growth (rosette weight); type: in vivo; settings: watering with 1 mM once a week for 4 weeks
Procedure: Material and Methods. The seeds of A. thaliana (ecotype Col-0) were sown in individual pots directly on compost without a prior step of stratification. […] These plants were then separated into 2 batches with 12 plants each, one watered with distilled water, the other with a solution of 4-PBA at a final concentration of 1 mM. In practice, watering took place once a week on a fixed day and at a fixed time, for 4 consecutive weeks (FIG. 5a). […] The rosette of each of the plantlets was then weighed to evaluate the effect of watering with 4-PBA on vegetative growth.

Phytophthora parasitica = assay: Radial growth of the oomycete; type: cell-based
[5] = test system: Arabidopsis thaliana (ecotype Col-0); assay: Phytotoxicity after leaf infiltration; type: in vivo; settings: 0.5 or 1 mM; 48 hours after infiltration
Procedure: Material and Methods. Seeds of A. thaliana (ecotype Col-0) were sown in individual pots directly on compost without a prior step of stratification. […] The experiment was repeated 3 times. Each experiment included about ten plants. Six leaves representative of the 3 experiments were photographed 48 hours after infiltration (FIG. 5c).

Zymoseptoria tritici = assay: Growth of the primary hypha on PG solid medium; type: cell-based
Alternaria brassicicola = assay: Radial growth of the mycelium; type: cell-based; settings: 240 h; for inhibition at 1000 µM / inhibition at 2000 µM / inhibition at 5000 µM: time 10 days
Cercospora beticola = assay: Radial growth of the mycelium; type: cell-based; settings: 528 h, 1 mM 4-PBA, time 22 days
[6] = lowest concentration tested (1 mM)

SMILES: O=C(O)CCCc1ccccc1 [4-PBA, 4-Phenylbutyric acid]
- persistence of the active principle ([1]; 5 mM in culture medium): up to 23 days
- radial growth of the mycelium ([1]; 1, 2 and 5 mM in PDA, 26 days): dose-dependent slowing
- EC50 ([1]; Botrytis cinerea, read-out: EC50 (median inhibitory concentration, radial growth halved)): 2000 to 3000 µM
- inhibition at 1000 µM (Fusarium graminearum; Fusarium graminearum, 144 h): 48%
- inhibition at 2000 µM (Fusarium graminearum; Fusarium graminearum, 144 h): 97%
- inhibition at 5000 µM (Fusarium graminearum; Fusarium graminearum, 144 h): 99%
- persistence of the molecule (Fusarium graminearum; [6]): up to 10 days
- inhibition at 1000 µM ([2]; 288 h, 1 mM 4-PBA, time 12 days): 67%
- inhibition at 2000 µM ([2]; 288 h, 2 mM 4-PBA, time 12 days): 75%
- inhibition at 5000 µM ([2]; 288 h, 5 mM 4-PBA, time 12 days): 97%
- EC50 ([2]; 288 h, time 12 days (day control colonized the whole Petri dish)): 450 µM
- persistence of the molecule [2, 6]: ≤ 30 days
- germination rate of the spores ([3]; 4-PBA 0.1 mM): 100%
- inhibition at 1000 µM ([3]; Botrytis cinerea, 1 mM): 86%
- concentration from which growth of the primary hypha is limited ([3]; liquid PDB): ≥ 0.1 mM
- growth at higher concentrations (Phytophthora capsici; 2 and 5 mM): complete absence of growth for 20 days
- inhibition at 1000 µM (Phytophthora capsici; Phytophthora capsici, 216 h, 1 mM 4-PBA, time 9 days): 90%
- inhibition at 2000 µM (Phytophthora capsici; Phytophthora capsici, 216 h, 2 mM 4-PBA, time 9 days): 100%
- inhibition at 5000 µM (Phytophthora capsici; Phytophthora capsici, 216 h, 5 mM 4-PBA, time 9 days): 100%
- effect on the aerial biomass [4]: no effect
- growth at higher concentrations (Phytophthora parasitica; 2 and 5 mM): complete absence of growth for 20 days
- inhibition at 1000 µM (Phytophthora parasitica; Phytophthora nicotianae, 240 h, 1 mM 4-PBA, time 10 days): 95%
- inhibition at 2000 µM (Phytophthora parasitica; Phytophthora nicotianae, 240 h, 2 mM 4-PBA, time 10 days): 99%
- inhibition at 5000 µM (Phytophthora parasitica; Phytophthora nicotianae, 240 h, 5 mM 4-PBA, time 10 days): 100%
- EC50 (Phytophthora parasitica; Phytophthora nicotianae, 240 h, time 10 days (day control colonized the whole Petri dish)): 0.00024 µM
- difference between EC50 calculated for B. cinerea and for P. parasitica (Phytophthora parasitica; Table 2 and FIG. 6b): 7 orders of magnitude
- times more sensitive to the molecule than B. cinerea (Phytophthora parasitica; radial growth EC50 compared with B. cinerea): about 12 million
- macroscopic symptoms after infiltration of the leaves [5]: absence of macroscopic symptoms
- EC50 (Zymoseptoria tritici; 48 h, isolate 14-FT-A1, 48 hours): 245 µg/mL
- EC50 (Zymoseptoria tritici; 48 h, isolate 14-FT-A1, 48 hours, read-out: EC50): 1320 µM
- EC50 (Zymoseptoria tritici; 48 h, isolate 37-30, 48 hours): 163 µg/mL
- EC50 (Zymoseptoria tritici; 48 h, isolate 37-30, 48 hours, read-out: EC50): 874 µM
- EC50 (Zymoseptoria tritici; 48 h, isolate 37-41, 48 hours): 164 µg/mL
- EC50 (Zymoseptoria tritici; 48 h, isolate 37-41, 48 hours, read-out: EC50): 880 µM
- EC50 (Zymoseptoria tritici; 48 h, isolate 11183, 48 hours): 196 µg/mL
- EC50 (Zymoseptoria tritici; 48 h, isolate 11183, 48 hours, read-out: EC50): 1050 µM
- EC50 (Zymoseptoria tritici; 48 h, isolate IPO-323, 48 hours): 122 µg/mL
- EC50 (Zymoseptoria tritici; 48 h, isolate IPO-323, 48 hours, read-out: EC50): 657 µM
- EC50 (Zymoseptoria tritici; 48 h, isolate ST5548, 48 hours): 246 µg/mL
- EC50 (Zymoseptoria tritici; 48 h, isolate ST5548, 48 hours, read-out: EC50): 1320 µM
- EC50 (Zymoseptoria tritici; 48 h, isolate STDP-047915, 48 hours): 212 µg/mL
- EC50 (Zymoseptoria tritici; 48 h, isolate STDP-047915, 48 hours, read-out: EC50): 1140 µM
- EC50 (Zymoseptoria tritici; six isolates resistant to conventional fungicides, read-out: EC50 calculated for all of these isolates, order of magnitude): ~1000 µM
- inhibition at 1000 µM (Alternaria brassicicola; strain 1, 1 mM 4-PBA): 70%
- inhibition at 2000 µM (Alternaria brassicicola; strain 1, 2 mM 4-PBA): 88%
- inhibition at 5000 µM (Alternaria brassicicola; strain 1, 5 mM 4-PBA): 97%
- EC50 (Alternaria brassicicola; strain 1, time 10 days): 260 µM
- inhibition at 1000 µM (Alternaria brassicicola; strain 1509, 1 mM 4-PBA): 58%
- inhibition at 2000 µM (Alternaria brassicicola; strain 1509, 2 mM 4-PBA): 81%
- inhibition at 5000 µM (Alternaria brassicicola; strain 1509, 5 mM 4-PBA): 96%
- EC50 (Alternaria brassicicola; strain 1509, time 10 days): 640 µM
- inhibition at 1000 µM (Cercospora beticola): 0%

Reference: patent US20230172201A1, “Use of 4-Phenylbutyric Acid and/or 3-Phenylbutyric Acid and/or 2-Phenylbutyric Acid in Preventing and Treating Cryptogamic Diseases” (Institut National de Recherche Pour L'Agriculture, …, priority 2020, published 2023)
